Test results taken from patent publication US5219884A, “Immunosuppressant” (Taito Co., Ltd., priority 1990, dated 1993).

What was measured:
[1] = system: interleukin 2 receptor (IL-2R, Tac) expression in PHA-stimulated mouse spleen cells; experiment: suppression of induction of IL-2R (Tac) expression in PHA-stimulated mouse spleen cells; type: cell-based
Protocol: (§1) Mouse allogenic MLC and PHA-stimulated mouse spleen cells were prepared in the same as in Experimental Example 3.
(§2) The IL-2R (Tac) induced in mouse allogenic MLC and PHA-stimulated mouse spleen cells was assayed as follows:
(§3) After culturing the mouse allogenic MLC and the PHA-stimulated mouse spleen cells at 37° C. in an atmosphere of 5% carbon dioxide for 24 hours, the cells were collected by centrifugation (1000 rpm, 5 minutes, 4° C.), and about 10^6 cells were cultured in 10 μl of phosphate buffered saline (PBS), to which 0.02% sodium azide-containing rat anti-mouse IL-2R monoclonal antibody (manufactured by Boehringer Co., 40 μg/ml) had been added, for 30 minutes with ice-cooling. After washing three times with ice-cooled PBS containing 0.02% sodium azide, 50 μl of fluorescein isothiocyanate (FITC)-labeled goat anti-rat immunoglobulin G antibody was added and cultured for 30 minutes with ice-cooling. To the cell pellet after washing three times with ice-cooled 0.02% sodium azide-added PBS was added, a few drops of PBS containing 0.2% sodium azide and 50% glycerin. Prepared specimens on non-fluorescent slide glasses were made and the IL-2R positive cells were counted under a fluorescent microscope to determine the ratio of numbers of IL-2R positive cells in the total numbers of the cells.

[2] = system: interleukin 6 (IL6) response of mouse spleen cells; experiment: suppression of interleukin 6 (IL6) response of mouse spleen cells (plaque assay); type: cell-based
Protocol: The spleen was resected from 8-week-old male BALB/c mice, and single cell suspension in the serum-free RPMI1640 culture medium was prepared, and thereafter cell pellets were obtained by centrifugation (1000 rpm, 5 minutes) of the suspension. Then a mixture of 9 parts of a 0.16 M ammonium chloride solution and 1 part of a 0.17 M Tris solution (pH 7.65) was added to lyse red blood cells, and the suspension was washed three times with the serum-free RPMI1640 culture medium. The obtained cells were suspended to the concentration of 5×10^6 cells/ml in the RPMI1640 culture medium supplemented with 20% FCS, 5×10^-5 M 2-mercaptoethanol, 2×10^-3 M L glutamine, 1×10^-3 sodium pyruvate and 25% of the supernatant of the culture of T24 human bladder carcinoma cell line as a source of interluekin 6. One hundred μl of this cell suspension and 100 μl of the test substance were mixed in each well of 96-well microculture plates, and cultured at 37° C. in an atmosphere of 5% carbon dioxide for 72 hours. After termination of the culture, 50 μl of the cell suspension was collected from each well. Three hundred μl of the RPMI1640 culture medium supplemented with 0.7% agarose gel, 20 μl of physiological saline containing 40% protein A-bound sheep red blood cells and 20 μl of 300-fold dilution of anti-mouse IgG anti-serum diluted in physiological saline were mixed in a test tube, and extended uniformly on Rohduck plates (Falcon Co. 1034). After gel formation by keeping still at room temperature for a few minutes, the plates were cultured at 37° C. in an atmosphere of 5% carbon dioxide for about 4 hours.
Three hundred μl of a 40-fold dilution of guinea pig complement in the serum-free RPMI1640 culture medium was added to each plate, which was then incubated for further 2 hours. The number of plaques formed was counted under stereoscopic microscope.
SD in the Table means standard deviation. The percent suppression (%) was calculated by the following formula. [formula]

[3] = system: allo-reactive cytotoxic T cells (EL4 target cells); experiment: suppression of allo-reactive cytotoxic T cells induced by immunization of mouse with allogenic cells; type: in vivo; details: 0.1 mg/kg/day i.p., 6 times
Protocol: Male BALB/c mice were immunized with spleen cells of C57BL/6 mice (5×10^7 cells/mouse, intraperitoneal administration), and ISP-I in Example 1 was administered intraperitoneally 6 times at the doses of 0.1 mg/kg/day from the next day of immunization. Eight days after immunization, the spleen was resected to prepare effector cells, with which the ^51 Cr release test was carried out as in Experimental Example 3, using EL4 cells as the target cells to measure the cytotoxic activity.

[4] = system: interleukin 1 (IL1) response of mouse thymocytes; experiment: suppression of interleukin 1 (IL1) response of mouse thymocytes; type: cell-based; details: PHA + IL1
Protocol: The thymus was resected from 7-week-old male C3H/HeN mice, and single cell suspension was prepared using the serum-free RPMI1640 culture medium. After three times washing with the medium, the cells were suspended to a concentration of 1.5×10^7 cells/ml in the RPMI1640 culture medium supplemented with 20% fetal calf serum, 5×10^-5 M 2-mercaptoethanol, 2×10^-3 M L-glutamine, 1×10^-3 M sodium pyruvate, 1 μg/ml of phytohemagglutinin (PHA, Wellcome Co., HA16/17) and 2 units/ml of human ultrapure interleukin 1 (Genzyme Co., GUPi-1). One hundred μl of this cell suspension and 100 μl of the solution containing ISP-I were mixed in each well of the 96-well flat-bottomed microculture plate, cultured at 37° C. in an atmosphere of 5% carbon dioxide for 66 hours, and cultured for further 6 hours after addition of 0.5 μCi/well of ^3 H-thymidine. After termination of the culture, the cells in each well were harvested onto a filter by a multiple cell harvester, and the radioactivity incorporated into the cells was measured by liquid scintillation method using a toluene-base scintillator.
In the table, SD means standard deviation. The percent suppression (%) was calculated by the following formulation. [formula]

[5] = system: interleukin 2 receptor (IL-2R, Tac) expression in mouse allogenic MLC; experiment: suppression of induction of IL-2R (Tac) expression in mouse allogenic MLC; type: cell-based
Protocol: as §1, §2, §3

`CCCCCCC(=O)CCCCCC/C=C/CC(O)C(O)C(N)(CO)C(=O)O` (centres unmarked) [Example 1] showed an IL-2R positive cells ([1]; 0.1 μg/ml) of 36.6%, an IL-2R positive cells ([1]; 1 μg/ml) of 26.6% and an IL-2R positive cells ([1]; 10 μg/ml) of 13.4%. For the same molecule, the inhibition at 0.1 µg/mL ([1]; Mus musculus, 24 h, 0.1 μg/ml) was 20.8%, the inhibition at 1 µg/mL ([1]; Mus musculus, 24 h, 1 μg/ml) was 42.4% and the inhibition at 10 µg/mL ([1]; Mus musculus, 24 h, 10 μg/ml) was 71%. The Number of plaque ([2]; 0.002 μg/ml) was 130 ± 4 plaque/1 × 10^6 cells ± SD, the Number of plaque ([2]; 0.02 μg/ml) was 108 ± 10 plaque/1 × 10^6 cells ± SD and the Number of plaque ([2]; 0.2 μg/ml) was 78 ± 6 plaque/1 × 10^6 cells ± SD. The Number of plaque ([2]; 2 μg/ml) was 60 ± 8 plaque/1 × 10^6 cells ± SD, the inhibition at 0.002 µg/mL ([2]; Mus musculus, 72 h, 0.002 μg/ml) was 39.2% and the inhibition at 0.02 µg/mL ([2]; Mus musculus, 72 h, 0.02 μg/ml) was 50.5%. For the same molecule, the inhibition at 0.2 µg/mL ([2]; Mus musculus, 72 h, 0.2 μg/ml) was 66%, the inhibition at 2 µg/mL ([2]; Mus musculus, 72 h, 2 μg/ml) was 75.3% and the “Amount of 51Cr release” value ([3]; effector:target 25:1) was 1046 cpm. The Cytotoxic activity ([3]; effector:target 25:1) was 5%, the “Amount of 51Cr release” value ([3]; effector:target 50:1) was 1258 cpm and the Cytotoxic activity ([3]; effector:target 50:1) was 8%. For the same molecule, the “Amount of 51Cr release” value ([3]; effector:target 100:1) was 1543 cpm, the Cytotoxic activity ([3]; effector:target 100:1) was 13% and the inhibition at 0.2 µg/mL ([4]; Mus musculus, Thymocyte, 72 h, 0.2 μg/ml) was 83.9%. For the same molecule, the inhibition at 2 µg/mL ([4]; Mus musculus, Thymocyte, 72 h, 2 μg/ml) was 91.8%, the 3H-thymidine uptake ([4]; 0.2 μg/ml) was 4646 ± 826 cpm ± SD and the 3H-thymidine uptake ([4]; 2 μg/ml) was 3973 ± 39 cpm ± SD. The IL-2R positive cells ([5]; 0.001 μg/ml) was 22.4%, the IL-2R positive cells ([5]; 0.01 μg/ml) was 17.6% and the IL-2R positive cells ([5]; 0.1 μg/ml) was 13.1%. It also gave an IL-2R positive cells ([5]; 1 μg/ml) of 11.4%, an inhibition at 0.001 µg/mL ([5]; Mus musculus, 24 h, 0.001 μg/ml) of 8.2% and an inhibition at 0.01 µg/mL ([5]; Mus musculus, 24 h, 0.01 μg/ml) of 27.9%. The inhibition at 0.1 µg/mL ([5]; Mus musculus, 24 h, 0.1 μg/ml) was 44.3% and the inhibition at 1 µg/mL ([5]; Mus musculus, 24 h, 1 μg/ml) was 53.3%.
